Laboratory results taken from US20210274788A1, “PESTICIDALLY ACTIVE ISOXAZOLINE D[…] AMIDE GROUP AND AN AZETIDINE SULFONE GROUP” (SYNGENTA CROP PROTECTION AG, priority 2018, published 2021).

Tests used:
Format in all cases: in vivo
[1] = system: Spodoptera littoralis (Egyptian Cotton Leaf Worm); assay: Spodoptera littoralis (Egyptian cotton leaf worm), cotton leaf discs, L1 larvae; conditions: foliar, 72 h, application rate 200 ppm, 3 days after infestation
Protocol: Spodoptera littoralis (Egyptian Cotton Leaf Worm)
Cotton leaf discs were placed onto agar in 24-well microtiter plates and sprayed with aqueous test solutions prepared from 10,000 ppm DMSO stock solutions. After drying the leaf discs were infested with five L1 larvae. The samples were assessed for mortality, anti-feeding effect, and growth inhibition in comparison to untreated samples 3 days after infestation. Control of Spodoptera littoralis by a test sample is given when at least one of the categories mortality, anti-feedant effect, and growth inhibition is higher than the untreated sample.

[2] = system: Euschistus heros (Neotropical Brown Stink Bug); assay: Euschistus heros (neotropical brown stink bug), sprayed soybean leaves, N2 nymphs; conditions: 120 h, application rate 200 ppm, 5 days after infestation, read-out: effect in at least one of the two categories (mortality or growth inhibition)
Protocol: Euschistus heros (Neotropical Brown Stink Bug)
Soybean leaves on agar in 24-well microtiter plates were sprayed with aqueous test solutions prepared from 10,000 ppm DMSO stock solutions. After drying the leaves were infested with N2 nymphs. The samples were assessed for mortality and growth inhibition in comparison to untreated samples 5 days after infestation.

[3] = system: Plutella xylostella (Diamond Back Moth); assay: Plutella xylostella (diamond back moth), treated artificial diet, eggs; conditions: 192 h, application rate 200 ppm, 8 days after infestation, read-out: effect in at least one of the two categories (mortality or growth inhibition)
Protocol: Plutella xylostella (Diamond Back Moth)
24-well microtiter plates with artificial diet were treated with aqueous test solutions prepared from 10,000 ppm DMSO stock solutions by pipetting. After drying, Plutella eggs were pipetted through a plastic stencil onto a gel blotting paper and the plate was closed with it. The samples were assessed for mortality and growth inhibition in comparison to untreated samples 8 days after infestation.

CCOCN(C(=O)c1ccc(C2=NO[C@@](c3cc(Cl)c(F)c(Cl)c3)(C(F)(F)F)C2)cc1C)C1CN(S(=O)(=O)C(F)F)C1 [Compound A3, 4-[(5S)-5-(3,5-dichloro-4-fluoro-phenyl)-5-(trifluoromethyl)-4H-isoxazol-3-yl]-N-[1-(difluoromethylsulfonyl)azetidin-3-yl]-N-(ethoxymethyl)-2-methyl-benzamide]
≥ 80%: percent control (mortality, anti-feedant effect or growth inhibition) at 200 ppm [1] | percent effect (mortality or growth inhibition) at 200 ppm [2] | percent effect (mortality or growth inhibition) at 200 ppm [3]
